Test results from ChEMBL document CHEMBL1201862, “PubChem BioAssay data set” (2004).
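Five concentrations, 48 hours, 96-well plates. GI50 = concentration required for 50% inhibition of growth.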 Active and inactive are the calls of the source. Cut-off read from the data, not from the text of the source: active = GI50 up to about 1.1 µM and inactive = higher.

Columns and labels:
Assay in all cases: inhibition of tumour cell growth, NCI panel, 48 h
MOLT-4 = test system: MOLT-4
TK-10 = test system: TK-10
BT-549 = test system: BT-549
KM12 = test system: KM12
MCF7 = test system: MCF7
LOX IMVI = test system: LOX IMVI
M14 = test system: M14
SK-MEL-5 = test system: SK-MEL-5
T47D = test system: T47D
SK-OV-3 = test system: SK-OV-3
OVCAR-3 = test system: OVCAR-3
CCRF-CEM = test system: CCRF-CEM
RPMI-8226 = test system: RPMI-8226
HCC 2998 = test system: HCC 2998
HCT-15 = test system: HCT-15
SF-295 = test system: SF-295
SNB-75 = test system: SNB-75
UACC-62 = test system: UACC-62
NCI/ADR-RES = test system: NCI/ADR-RES
NCI-H226 = test system: NCI-H226

Compound | GI50 (MOLT-4) | GI50 (TK-10) | GI50 (BT-549) | GI50 (KM12) | GI50 (MCF7) | GI50 (LOX IMVI) | GI50 (M14) | GI50 (SK-MEL-5) | GI50 (T47D) | GI50 (SK-OV-3) | GI50 (OVCAR-3) | GI50 (CCRF-CEM) | GI50 (RPMI-8226) | GI50 (HCC 2998) | GI50 (HCT-15) | GI50 (SF-295) | GI50 (SNB-75) | GI50 (UACC-62) | GI50 (NCI/ADR-RES) | GI50 (NCI-H226)
O=C1Nc2ccccc2/C1=C\c1c(Cl)n(-c2ccccc2)c2ccccc12 | 4.82 µM (inactive) | 3.95 µM (inactive) | 5.93 µM (inactive) | 2.84 µM (inactive) | 3.44 µM (inactive) | 3.56 µM (inactive) | 2.92 µM (inactive) | 2.66 µM (inactive) | 3.41 µM (inactive) | 4.07 µM (inactive) | 1.92 µM (inactive) | 6.65 µM (inactive) | 4.92 µM (inactive) | 3.15 µM (inactive) | 2.49 µM | 3.18 µM (inactive) | 1.73 µM (inactive) | 8.07 µM (inactive) | 2.38 µM (inactive) | 1.7 µM (inactive)
C=C1CC(Cn2ccc(=O)[nH]c2=O)(c2ccc(-c3ccccc3)cc2)OC1=O (stereo not given) | 1.5 µM (inactive) | 1.03 µM (active) | 1.86 µM (inactive) | 3.61 µM (inactive) | 0.916 µM (active) | 0.493 µM (active) | 1.67 µM (inactive) | 1.16 µM (inactive) | 1.57 µM (inactive) | 8.09 µM (inactive) | 1.98 µM (inactive) | 0.305 µM (active) | 0.234 µM (active) | 2.07 µM (inactive) | 1.65 µM | 12.5 µM (inactive) | 13.6 µM (inactive) | 0.764 µM (active) | 0.805 µM (active) | 4.6 µM (inactive)
OC(c1ccc(-c2ccccc2)cc1)C(F)(F)c1nc2ccccc2o1 (stereo not given) | 28.5 µM (inactive) | 38.3 µM (inactive) | > 96.4 µM (inactive) | 36.8 µM (inactive) | 25.3 µM (inactive) | > 95.3 µM (inactive) | > 100 µM (inactive) | 65.3 µM (inactive) | 31.8 µM (inactive) | 37.2 µM (inactive) | 35.8 µM (inactive) | > 45 µM (inactive) | 51.3 µM (inactive) | > 100 µM (inactive) | > 100 µM | 96.4 µM (inactive) | 27.8 µM (inactive) | > 78 µM (inactive) | > 79.8 µM (inactive) | > 48.3 µM (inactive)
O=[N+]([O-])c1ccc(S(=O)(=O)N=Ic2ccccc2)cc1 | > 100 µM (inactive) | > 100 µM (inactive) | > 100 µM (inactive) | > 100 µM (inactive) | > 100 µM (inactive) | > 100 µM (inactive) | > 100 µM (inactive) | > 100 µM (inactive) | > 100 µM (inactive) | > 100 µM (inactive) | > 100 µM (inactive) | > 100 µM (inactive) | > 100 µM (inactive) | > 100 µM (inactive) | > 100 µM | > 100 µM (inactive) | > 100 µM (inactive) | > 100 µM (inactive) | > 100 µM (inactive) | > 100 µM (inactive)
O=C(O)C/C=C/CC(=O)O | > 100 µM (inactive) | > 100 µM (inactive) | > 100 µM (inactive) | > 100 µM (inactive) | > 100 µM (inactive) | > 100 µM (inactive) | > 100 µM (inactive) | > 100 µM (inactive) | > 100 µM (inactive) | > 100 µM (inactive) | > 100 µM (inactive) | > 100 µM (inactive) | > 100 µM (inactive) | > 100 µM (inactive) | > 100 µM | > 100 µM (inactive) | > 100 µM (inactive) | > 100 µM (inactive) | > 100 µM (inactive) | > 100 µM (inactive)
CC(=O)Nc1[nH]c(C#N)nc1C#N | > 100 µM (inactive) | > 100 µM (inactive) | > 100 µM (inactive) | > 100 µM (inactive) | > 100 µM (inactive) | > 100 µM (inactive) | > 100 µM (inactive) | > 100 µM (inactive) | > 100 µM (inactive) | > 100 µM (inactive) | > 100 µM (inactive) | > 100 µM (inactive) | > 100 µM (inactive) | > 100 µM (inactive) | > 100 µM | > 100 µM (inactive) | > 100 µM (inactive) | > 100 µM (inactive) | > 100 µM (inactive) | > 100 µM (inactive)
O=C(O)/C=N\N=c1[nH]c2ccccc2[nH]1 | > 100 µM (inactive) | > 100 µM (inactive) | > 100 µM (inactive) | > 100 µM (inactive) | 49.2 µM (inactive) | > 100 µM (inactive) | > 100 µM (inactive) | > 100 µM (inactive) | > 100 µM (inactive) | > 100 µM (inactive) | > 100 µM (inactive) | > 100 µM (inactive) | > 100 µM (inactive) | > 100 µM (inactive) | > 100 µM | > 100 µM (inactive) | > 100 µM (inactive) | > 100 µM (inactive) | > 100 µM (inactive) | > 100 µM (inactive)
CC(C)C(Br)CC/C(CBr)=C(\Cl)CCl (stereo not given) | 0.589 µM (active) | 7.93 µM (inactive) | 1.78 µM (inactive) | 5.61 µM (inactive) | 6.15 µM (inactive) | 0.355 µM (active) | 1.79 µM (inactive) | 1.79 µM (inactive) | 1.63 µM (inactive) | 2.94 µM (inactive) | 3.3 µM (inactive) | 0.135 µM (active) | 2 µM (inactive) | 13.4 µM (inactive) | 2.11 µM | 15.1 µM (inactive) | 5.19 µM (inactive) | 2.49 µM (inactive) | 3.33 µM (inactive) | 2.75 µM (inactive)
C[N+](C)([O-])C12CC3CC(CC(C3)C1)C2 | 29.3 µM (inactive) | 20.9 µM (inactive) | 34 µM (inactive) | 26.8 µM (inactive) | 33.1 µM (inactive) | 27.2 µM (inactive) | 25.7 µM (inactive) | 27.2 µM (inactive) | 26.9 µM (inactive) | 61.9 µM (inactive) | 16.4 µM (inactive) | 34.1 µM (inactive) | 29.9 µM (inactive) | 29.4 µM (inactive) | 30.6 µM | 30 µM (inactive) | 28.2 µM (inactive) | 20.1 µM (inactive) | 31.6 µM (inactive) | 55.2 µM (inactive)
NCC(O)CNC(=O)c1ccc(-c2ccc(-c3ccc(C(=O)NCC(O)CN)cc3)o2)cc1 (stereo not given) | > 100 µM (inactive) | 18 µM (inactive) | 32.7 µM (inactive) | 51.2 µM (inactive) | 32.8 µM (inactive) | 45 µM (inactive) | > 100 µM (inactive) | 33.3 µM (inactive) | 34.6 µM (inactive) | 23.9 µM (inactive) | 21.4 µM (inactive) | > 100 µM (inactive) | > 100 µM (inactive) | 25.1 µM (inactive) | 57.8 µM | 23.5 µM (inactive) | 25.8 µM (inactive) | 41.8 µM (inactive) | > 100 µM (inactive) | 22.6 µM (inactive)
CCN(CC)CCN1C=CC(C)C(C(=O)O)C1C(N)=O (stereo not given) | > 100 µM (inactive) | > 100 µM (inactive) | > 100 µM (inactive) | > 100 µM (inactive) | > 100 µM (inactive) | > 100 µM (inactive) | > 100 µM (inactive) | > 100 µM (inactive) | > 100 µM (inactive) | > 100 µM (inactive) | > 100 µM (inactive) | > 100 µM (inactive) | > 100 µM (inactive) | > 100 µM (inactive) | > 100 µM | > 100 µM (inactive) | > 100 µM (inactive) | > 100 µM (inactive) | > 100 µM (inactive) | > 100 µM (inactive)
C[C@H](CCC1=NCCN1)[C@H]1CC[C@H]2[C@@H]3CC[C@@H]4C[C@H](O)CC[C@]4(C)[C@H]3C[C@H](O)[C@]12C | 3.13 µM (inactive) | 14 µM (inactive) | 18.2 µM (inactive) | 11.8 µM (inactive) | 12.7 µM (inactive) | 11.2 µM (inactive) | 17.4 µM (inactive) | 11.8 µM (inactive) | 13.6 µM (inactive) | 18 µM (inactive) | 12.1 µM (inactive) | 10.7 µM (inactive) | 11.3 µM (inactive) | 13.5 µM (inactive) | 53.1 µM | 15.6 µM (inactive) | 2.37 µM (inactive) | 13.5 µM (inactive) | > 100 µM (inactive) | 14.3 µM (inactive)
O=C(CN1CCN(Cc2ccccc2)CC1)c1ccc2[nH]c(=O)oc2c1 | > 100 µM (inactive) | > 100 µM (inactive) | > 100 µM (inactive) | > 100 µM (inactive) | > 100 µM (inactive) | > 100 µM (inactive) | > 100 µM (inactive) | > 100 µM (inactive) | > 100 µM (inactive) | > 100 µM (inactive) | > 100 µM (inactive) | > 100 µM (inactive) | > 100 µM (inactive) | > 100 µM (inactive) | > 100 µM | > 100 µM (inactive) | > 41.3 µM (inactive) | > 100 µM (inactive) | > 100 µM (inactive) | > 50.6 µM (inactive)
N#CC(NNC(=O)c1ccccc1O)c1c(O)ccc2ccccc12 (stereo not given) | 2.26 µM (inactive) | 4.7 µM (inactive) | 7.11 µM (inactive) | 4.84 µM (inactive) | 4.5 µM (inactive) | 0.877 µM (active) | 3.46 µM (inactive) | 2.67 µM (inactive) | 2.96 µM (inactive) | 4.68 µM (inactive) | 2.54 µM (inactive) | 0.962 µM (active) | 3.48 µM (inactive) | 9.55 µM (inactive) | 2.89 µM | 4.78 µM (inactive) | 7.31 µM (inactive) | 2.61 µM (inactive) | 3.44 µM (inactive) | 3.71 µM (inactive)
